From PubChem BioAssay AID248 (DTP/NCI, 2004)
Values joined by “and” are separate entries in the source; they are usually repeats but may differ in a detail not shown here. Equal values may be shown once. Toxic doses and inconclusive results are not listed. Cut-off read from the data, not from the text of the source: active = T/C of 150% or more; inactive = T/C below 125%.

System: L1210 leukemia ip in BDF1 mice, survival T/C
Assay: NCI In Vivo Anticancer Drug Screen. Data for tumor model L1210 Leukemia (intraperitoneal) in B6D2F1 (BDF1) mice
Conditions: endpoint: mean survival time, higher = longer survival
How it was run: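 Mice bearing the transplanted tumor received compound or vehicle. Survival of the treated group was divided by that of the vehicle-treated control group to give the ratio.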

[1] = dose: 100.0 mg/kg/injection, schedule: Q01DX001 (ip), vehicle: carboxymethylcellulose (CMC)
[2] = dose: 200.0 mg/kg/injection, schedule: Q01DX001 (ip), vehicle: carboxymethylcellulose (CMC)
[3] = dose: 400.0 mg/kg/injection, schedule: Q01DX001 (ip), vehicle: carboxymethylcellulose (CMC)
[4] = dose: 100.0 mg/kg/injection, schedule: Q04DX003 (ip), vehicle: saline with Tween-80
[5] = dose: 200.0 mg/kg/injection, schedule: Q04DX003 (ip), vehicle: saline with Tween-80
[6] = dose: 400.0 mg/kg/injection, schedule: Q04DX003 (ip), vehicle: saline with Tween-80
[7] = dose: 50.0 mg/kg/injection, schedule: Q04DX003 (ip), vehicle: saline
[8] = dose: 100.0 mg/kg/injection, schedule: Q01DX001 (ip), vehicle: saline
[9] = dose: 200.0 mg/kg/injection, schedule: Q01DX001 (ip), vehicle: saline
[10] = dose: 400.0 mg/kg/injection, schedule: Q01DX001 (ip), vehicle: saline

Measured: T/C

O=CN(O)CC(=O)O
inactive: dose: 62.5 mg/kg/injection, schedule: Q01DX010 (ip), vehicle: saline 95 % of control and 98 % of control | dose: 62.5 mg/kg/injection, schedule: Q01DX Z (ip), vehicle: saline 93 % of control | dose: 125.0 mg/kg/injection, schedule: Q01DX010 (ip), vehicle: saline 95 % of control | dose: 125.0 mg/kg/injection, schedule: Q01DX Z (ip), vehicle: saline 98 % of control | dose: 250.0 mg/kg/injection, schedule: Q01DX010 (ip), vehicle: saline 98 % of control and 106 % of control | dose: 250.0 mg/kg/injection, schedule: Q01DX Z (ip), vehicle: saline 92 % of control | dose: 500.0 mg/kg/injection, schedule: Q01DX010 (ip), vehicle: saline 96 % of control and 101 % of control | dose: 500.0 mg/kg/injection, schedule: Q01DX Z (ip), vehicle: saline 88 % of control | dose: 575.0 mg/kg/injection, schedule: Q02DX010 (ip), vehicle: other 101 % of control | dose: 860.0 mg/kg/injection, schedule: Q02DX010 (ip), vehicle: other 107 % of control | dose: 1300.0 mg/kg/injection, schedule: Q02DX010 (ip), vehicle: other 105 % of control | dose: 2000.0 mg/kg/injection, schedule: Q02DX010 (ip), vehicle: other 106 % of control | dose: 3000.0 mg/kg/injection, schedule: Q02DX010 (ip), vehicle: other 117 % of control

Cc1onc(-c2ccccc2Cl)c1-c1nc2ccccc2c(=O)o1
inactive: dose: 100.0 mg/kg/injection, schedule: Q04DX002 (ip), vehicle: Klucel (hydroxypropylcellulose) (HPC) 93 % of control | dose: 200.0 mg/kg/injection, schedule: Q04DX002 (ip), vehicle: Klucel (hydroxypropylcellulose) (HPC) 93 % of control | dose: 400.0 mg/kg/injection, schedule: Q04DX002 (ip), vehicle: Klucel (hydroxypropylcellulose) (HPC) 96 % of control

Nc1nnc(Sc2n[nH]c(=O)[nH]c2=O)s1
inactive: [1] 98 % of control | [2] 102 % of control | [3] 105 % of control

O=C(O)CN1C(=O)C2C3C=CC(C3)C2C1=O (stereo not drawn)
inactive: [4] 97 % of control | [5] 94 % of control | [6] 94 % of control

C#CC(CC(C)CC(C)(C)C)N(C)C (stereo not drawn)
inactive: dose: 25.0 mg/kg/injection, schedule: Q01DX009 (ip), vehicle: saline with Tween-80 92 % of control | dose: 50.0 mg/kg/injection, schedule: Q01DX009 (ip), vehicle: saline with Tween-80 92 % of control | dose: 100.0 mg/kg/injection, schedule: Q01DX009 (ip), vehicle: saline with Tween-80 101 % of control

CCOC(=O)C(C)C(c1ccccc1)c1ccccc1 (stereo not drawn)
inactive: [4] 92 % of control | [5] 93 % of control | [6] 96 % of control

COc1ccc(O)c(C(=O)c2cccc(OC)c2C#N)c1
inactive: dose: 25.0 mg/kg/injection, schedule: Q04DX003 (ip), vehicle: carboxymethylcellulose (CMC) 104 % of control | dose: 50.0 mg/kg/injection, schedule: Q01DX001 (ip), vehicle: carboxymethylcellulose (CMC) 103 % of control | dose: 50.0 mg/kg/injection, schedule: Q04DX003 (ip), vehicle: carboxymethylcellulose (CMC) 116 % of control | [1] 97 % of control | dose: 100.0 mg/kg/injection, schedule: Q01DX009 (ip), vehicle: carboxymethylcellulose (CMC) 99 % of control and 100 % of control | dose: 100.0 mg/kg/injection, schedule: Q04DX002 (ip), vehicle: carboxymethylcellulose (CMC) 100 % of control and 91 % of control | dose: 100.0 mg/kg/injection, schedule: Q04DX003 (ip), vehicle: carboxymethylcellulose (CMC) 107 % of control and 86 % of control | [2] 99 % of control | dose: 200.0 mg/kg/injection, schedule: Q01DX009 (ip), vehicle: carboxymethylcellulose (CMC) 97 % of control and 87 % of control | dose: 200.0 mg/kg/injection, schedule: Q04DX002 (ip), vehicle: carboxymethylcellulose (CMC) 104 % of control and 108 % of control | [3] 99 % of control | dose: 400.0 mg/kg/injection, schedule: Q01DX009 (ip), vehicle: carboxymethylcellulose (CMC) 110 % of control and 86 % of control | dose: 400.0 mg/kg/injection, schedule: Q04DX002 (ip), vehicle: carboxymethylcellulose (CMC) 97 % of control and 90 % of control

Oc1ccc2ccccc2c1-c1nc2ccccc2s1
inactive: dose: 25.0 mg/kg/injection, schedule: Q04DX003 (ip), vehicle: other 94 % of control and 111 % of control | dose: 50.0 mg/kg/injection, schedule: Q04DX003 (ip), vehicle: other 97 % of control and 88 % of control | dose: 100.0 mg/kg/injection, schedule: Q04DX003 (ip), vehicle: other 91 % of control

Cc1c(/C=C(\C#N)c2ccc([N+](=O)[O-])cc2)c(=O)n(-c2ccccc2)n1C
inactive: dose: 100.0 mg/kg/injection, schedule: Q01DX009 (ip), vehicle: gum acacia 93 % of control | dose: 100.0 mg/kg/injection, schedule: Q04DX003 (ip), vehicle: gum acacia 92 % of control | dose: 200.0 mg/kg/injection, schedule: Q01DX009 (ip), vehicle: gum acacia 90 % of control | dose: 200.0 mg/kg/injection, schedule: Q04DX003 (ip), vehicle: gum acacia 105 % of control | dose: 400.0 mg/kg/injection, schedule: Q01DX009 (ip), vehicle: gum acacia 89 % of control | dose: 400.0 mg/kg/injection, schedule: Q04DX003 (ip), vehicle: gum acacia 95 % of control

O=COC1CC2CC1C1CCCC21 (stereo not drawn)
inactive: [4] 94 % of control | [5] 92 % of control

Cc1cc(Cl)c([N+](=O)[O-])c(P(=O)(O)O)c1
inactive: dose: 75.0 mg/kg/injection, schedule: Q01DX001 (ip), vehicle: saline 90 % of control | dose: 150.0 mg/kg/injection, schedule: Q01DX001 (ip), vehicle: saline 90 % of control | dose: 300.0 mg/kg/injection, schedule: Q01DX001 (ip), vehicle: saline 96 % of control

CC(C)NNC(C)Cc1ccccc1 (stereo not drawn)
inactive: dose: 25.0 mg/kg/injection, schedule: Q04DX003 (ip), vehicle: Klucel (hydroxypropylcellulose) (HPC) 104 % of control | dose: 50.0 mg/kg/injection, schedule: Q04DX003 (ip), vehicle: Klucel (hydroxypropylcellulose) (HPC) 102 % of control | dose: 100.0 mg/kg/injection, schedule: Q04DX003 (ip), vehicle: Klucel (hydroxypropylcellulose) (HPC) 98 % of control

CC(=O)Oc1cc(OC(C)=O)c(Oc2cc(OC(C)=O)c(OC(C)=O)c(OC(C)=O)c2)c(OC(C)=O)c1
inactive: [4] 97 % of control | [5] 95 % of control | [6] 90 % of control

O=C(CCl)Nc1ncn[nH]1
inactive: dose: 75.0 mg/kg/injection, schedule: Q01DX001 (ip), vehicle: carboxymethylcellulose (CMC) 101 % of control | dose: 150.0 mg/kg/injection, schedule: Q01DX001 (ip), vehicle: carboxymethylcellulose (CMC) 97 % of control | dose: 300.0 mg/kg/injection, schedule: Q01DX001 (ip), vehicle: carboxymethylcellulose (CMC) 107 % of control

CN1C2CCC1CN(Cc1ccccc1)C2
inactive: dose: 12.5 mg/kg/injection, schedule: Q01DX009 (ip), vehicle: saline 103 % of control | dose: 12.5 mg/kg/injection, schedule: Q04DX003 (ip), vehicle: saline 97 % of control | dose: 25.0 mg/kg/injection, schedule: Q01DX009 (ip), vehicle: saline 101 % of control | dose: 25.0 mg/kg/injection, schedule: Q04DX003 (ip), vehicle: saline 101 % of control | dose: 50.0 mg/kg/injection, schedule: Q01DX009 (ip), vehicle: saline 101 % of control | [7] 98 % of control

O=C(CNC(=O)Nc1nccs1)N/N=C/c1cccc([N+](=O)[O-])c1
inactive: dose: 100.0 mg/kg/injection, schedule: Q01DX009 (ip), vehicle: Klucel (hydroxypropylcellulose) (HPC) 97 % of control | dose: 200.0 mg/kg/injection, schedule: Q01DX009 (ip), vehicle: Klucel (hydroxypropylcellulose) (HPC) 100 % of control and 90 % of control | dose: 400.0 mg/kg/injection, schedule: Q01DX009 (ip), vehicle: Klucel (hydroxypropylcellulose) (HPC) 97 % of control

COC1(c2ccccc2)OC12CC1CCC2C1 (stereo not drawn)
inactive: [7] 98 % of control | [8] 95 % of control | dose: 100.0 mg/kg/injection, schedule: Q04DX003 (ip), vehicle: saline 100 % of control | [9] 101 % of control | dose: 200.0 mg/kg/injection, schedule: Q04DX003 (ip), vehicle: saline 100 % of control | [10] 95 % of control

O=C(C(=Nc1ccc(Br)cc1)C(Nc1ccc(Br)cc1)C(=O)c1ccccc1)c1ccccc1 (stereo not drawn)
inactive: [8] 96 % of control | [9] 91 % of control | [10] 94 % of control

CC(C)(CO)N=Cc1ccc(O)cc1O
inactive: [1] 96 % of control | [2] 93 % of control | [3] 91 % of control

CC1CCC(C(=O)O)(C(=O)NC(N)=O)CC1C (stereo not drawn)
inactive: dose: 100.0 mg/kg/injection, schedule: Q01DX001 (ip), vehicle: steriod suspending solution 93 % of control | dose: 200.0 mg/kg/injection, schedule: Q01DX001 (ip), vehicle: steriod suspending solution 110 % of control | dose: 400.0 mg/kg/injection, schedule: Q01DX001 (ip), vehicle: steriod suspending solution 114 % of control
